Experimental data from ChEMBL document CHEMBL1201862, “PubChem BioAssay data set” (2004).
Activity calls are given as the source filed them.

Columns and labels:
CAAX prenyl protease 2 = CAAX prenyl protease 2 (Homo sapiens, UniProt Q9Y256); test: inhibition of Ras-converting CAAX protease Rce1 – biochemical, yeast membranes, quenched-peptide fluorescence, cherry-pick, dose response (AID 588849)
Trypsin = Trypsin (Sus scrofa, UniProt P00761); test: trypsin protease activity blockade – biochemical, quenched peptide fluorescence, cherry-pick, selectivity assay for Rce1 protease inhibitor project, dose response (AID 488789)
[1] = molecular target: T1, Voltage-gated N-type calcium channel alpha-1B subunit/Amyloid beta A4 precursor protein-binding family A member 1 (Homo sapiens, UniProt Q00975+Q02410); assay type: protein assay
T1 sequence (Q00975 whole entry): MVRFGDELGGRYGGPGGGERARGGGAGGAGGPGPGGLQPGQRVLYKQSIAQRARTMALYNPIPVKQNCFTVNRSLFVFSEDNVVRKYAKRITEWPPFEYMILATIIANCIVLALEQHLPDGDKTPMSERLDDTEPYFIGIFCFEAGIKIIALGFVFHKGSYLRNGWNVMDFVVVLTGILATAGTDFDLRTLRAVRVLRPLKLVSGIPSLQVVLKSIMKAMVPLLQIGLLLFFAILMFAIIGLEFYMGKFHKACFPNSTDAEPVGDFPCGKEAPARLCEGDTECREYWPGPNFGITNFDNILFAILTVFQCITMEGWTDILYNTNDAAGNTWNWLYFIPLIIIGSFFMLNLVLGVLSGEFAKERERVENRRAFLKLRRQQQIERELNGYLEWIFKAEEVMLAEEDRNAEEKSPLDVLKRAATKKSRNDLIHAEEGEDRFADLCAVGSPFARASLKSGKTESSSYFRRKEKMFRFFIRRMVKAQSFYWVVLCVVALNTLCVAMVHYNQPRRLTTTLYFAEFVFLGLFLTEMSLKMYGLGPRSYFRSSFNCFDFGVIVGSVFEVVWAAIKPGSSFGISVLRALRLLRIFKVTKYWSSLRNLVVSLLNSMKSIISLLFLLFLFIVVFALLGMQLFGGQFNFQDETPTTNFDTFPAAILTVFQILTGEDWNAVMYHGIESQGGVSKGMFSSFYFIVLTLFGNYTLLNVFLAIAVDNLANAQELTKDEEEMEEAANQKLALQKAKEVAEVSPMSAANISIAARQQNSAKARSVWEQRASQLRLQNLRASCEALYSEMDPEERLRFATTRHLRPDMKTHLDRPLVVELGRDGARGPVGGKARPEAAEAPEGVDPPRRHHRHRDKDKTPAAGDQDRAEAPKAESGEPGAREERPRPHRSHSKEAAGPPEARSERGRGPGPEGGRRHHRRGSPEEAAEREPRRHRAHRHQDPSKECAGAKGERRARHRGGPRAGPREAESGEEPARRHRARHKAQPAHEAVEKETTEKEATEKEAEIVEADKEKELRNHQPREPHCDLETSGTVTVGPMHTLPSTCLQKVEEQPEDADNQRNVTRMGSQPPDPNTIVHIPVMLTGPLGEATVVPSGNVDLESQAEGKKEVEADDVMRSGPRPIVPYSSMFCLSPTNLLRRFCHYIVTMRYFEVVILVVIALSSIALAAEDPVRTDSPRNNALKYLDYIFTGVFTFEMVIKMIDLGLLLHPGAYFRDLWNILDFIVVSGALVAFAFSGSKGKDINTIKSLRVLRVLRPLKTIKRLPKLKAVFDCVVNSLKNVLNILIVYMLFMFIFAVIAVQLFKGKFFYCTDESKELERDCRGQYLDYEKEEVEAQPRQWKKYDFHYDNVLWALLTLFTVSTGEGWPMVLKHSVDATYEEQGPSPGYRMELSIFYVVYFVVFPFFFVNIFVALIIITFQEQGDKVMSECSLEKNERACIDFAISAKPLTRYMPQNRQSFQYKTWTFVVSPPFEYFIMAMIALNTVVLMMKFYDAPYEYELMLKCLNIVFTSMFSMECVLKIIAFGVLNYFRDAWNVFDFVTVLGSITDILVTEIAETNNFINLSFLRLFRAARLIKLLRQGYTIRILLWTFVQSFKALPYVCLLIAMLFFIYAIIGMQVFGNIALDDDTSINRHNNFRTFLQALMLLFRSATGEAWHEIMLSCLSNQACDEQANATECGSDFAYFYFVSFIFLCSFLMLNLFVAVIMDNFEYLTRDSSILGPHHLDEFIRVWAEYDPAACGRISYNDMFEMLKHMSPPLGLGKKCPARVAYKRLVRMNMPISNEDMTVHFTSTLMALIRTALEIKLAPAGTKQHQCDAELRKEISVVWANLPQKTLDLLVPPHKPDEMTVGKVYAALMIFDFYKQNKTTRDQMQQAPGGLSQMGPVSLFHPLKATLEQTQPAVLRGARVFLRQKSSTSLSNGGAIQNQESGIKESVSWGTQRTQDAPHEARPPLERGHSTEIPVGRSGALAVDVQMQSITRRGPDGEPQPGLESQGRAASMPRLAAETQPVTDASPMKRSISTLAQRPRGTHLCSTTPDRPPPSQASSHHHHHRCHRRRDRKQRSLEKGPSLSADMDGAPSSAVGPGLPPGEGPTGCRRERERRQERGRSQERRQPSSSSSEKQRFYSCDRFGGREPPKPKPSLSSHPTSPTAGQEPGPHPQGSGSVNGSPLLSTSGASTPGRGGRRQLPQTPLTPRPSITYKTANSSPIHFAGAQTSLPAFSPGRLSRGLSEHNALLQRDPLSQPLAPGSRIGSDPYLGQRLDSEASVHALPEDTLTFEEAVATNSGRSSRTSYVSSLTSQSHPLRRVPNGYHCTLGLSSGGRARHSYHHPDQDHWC
T1 sequence (Q02410 whole entry): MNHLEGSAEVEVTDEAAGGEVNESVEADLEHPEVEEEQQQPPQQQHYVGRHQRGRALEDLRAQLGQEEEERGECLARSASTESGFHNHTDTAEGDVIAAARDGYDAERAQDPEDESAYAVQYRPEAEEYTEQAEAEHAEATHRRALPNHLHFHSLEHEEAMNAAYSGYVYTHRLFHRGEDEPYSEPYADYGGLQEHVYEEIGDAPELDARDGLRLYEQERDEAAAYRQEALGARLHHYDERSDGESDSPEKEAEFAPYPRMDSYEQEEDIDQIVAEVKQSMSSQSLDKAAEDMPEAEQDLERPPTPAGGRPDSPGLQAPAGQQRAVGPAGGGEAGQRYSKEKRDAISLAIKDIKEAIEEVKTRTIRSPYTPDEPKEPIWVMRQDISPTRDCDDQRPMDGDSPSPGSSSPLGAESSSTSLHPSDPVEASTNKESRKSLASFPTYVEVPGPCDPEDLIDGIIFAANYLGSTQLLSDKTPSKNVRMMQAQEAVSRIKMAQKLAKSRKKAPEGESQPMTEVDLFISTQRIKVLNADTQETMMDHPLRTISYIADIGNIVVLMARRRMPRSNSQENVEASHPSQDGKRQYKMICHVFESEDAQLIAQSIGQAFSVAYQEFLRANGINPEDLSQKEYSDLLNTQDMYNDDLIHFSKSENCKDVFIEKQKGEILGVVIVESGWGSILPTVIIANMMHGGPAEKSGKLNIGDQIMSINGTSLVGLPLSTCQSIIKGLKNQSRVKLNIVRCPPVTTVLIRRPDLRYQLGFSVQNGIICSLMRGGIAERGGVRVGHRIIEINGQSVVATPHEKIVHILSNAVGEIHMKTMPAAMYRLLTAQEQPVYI

[2] = molecular target: T1, Voltage-gated N-type calcium channel alpha-1B subunit/Amyloid beta A4 precursor protein-binding family A member 1; assay type: protein assay; remark: listed apart in the source
[3] = molecular target: DNA dC->dU-editing enzyme APOBEC-3A (Homo sapiens, UniProt P31941); test: A3A deaminase inhibition for selectivity – biochemical, dose response (AID 504722); assay type: functional
[4] = molecular target: Beta-adrenergic receptor kinase 1 (Homo sapiens, UniProt P25098); test: aptamer displacement from bead-bound GRK2 – biochemical, cherry pick 1, bead flow cytometry, dose response (AID 504500)
[5] = molecular target: DNA dC->dU-editing enzyme APOBEC-3G (Homo sapiens, UniProt Q9HC16); test: Dose Response confirmation of small molecule APOBEC3G DNA Deaminase Inhibitors via a fluorescence-based single-stranded DNA deaminase assay. [Related pubchem assays (depositor defined):AID493012, AID493028]; assay type: functional
[6] = molecular target: T2, Apoptotic protease-activating factor 1 (Homo sapiens, UniProt O14727); test: activation of Apaf-1 mediated apoptosis – fluorescent, uHTS hits, dose response (AID 588554); assay type: functional
T2 sequence (O14727 whole entry): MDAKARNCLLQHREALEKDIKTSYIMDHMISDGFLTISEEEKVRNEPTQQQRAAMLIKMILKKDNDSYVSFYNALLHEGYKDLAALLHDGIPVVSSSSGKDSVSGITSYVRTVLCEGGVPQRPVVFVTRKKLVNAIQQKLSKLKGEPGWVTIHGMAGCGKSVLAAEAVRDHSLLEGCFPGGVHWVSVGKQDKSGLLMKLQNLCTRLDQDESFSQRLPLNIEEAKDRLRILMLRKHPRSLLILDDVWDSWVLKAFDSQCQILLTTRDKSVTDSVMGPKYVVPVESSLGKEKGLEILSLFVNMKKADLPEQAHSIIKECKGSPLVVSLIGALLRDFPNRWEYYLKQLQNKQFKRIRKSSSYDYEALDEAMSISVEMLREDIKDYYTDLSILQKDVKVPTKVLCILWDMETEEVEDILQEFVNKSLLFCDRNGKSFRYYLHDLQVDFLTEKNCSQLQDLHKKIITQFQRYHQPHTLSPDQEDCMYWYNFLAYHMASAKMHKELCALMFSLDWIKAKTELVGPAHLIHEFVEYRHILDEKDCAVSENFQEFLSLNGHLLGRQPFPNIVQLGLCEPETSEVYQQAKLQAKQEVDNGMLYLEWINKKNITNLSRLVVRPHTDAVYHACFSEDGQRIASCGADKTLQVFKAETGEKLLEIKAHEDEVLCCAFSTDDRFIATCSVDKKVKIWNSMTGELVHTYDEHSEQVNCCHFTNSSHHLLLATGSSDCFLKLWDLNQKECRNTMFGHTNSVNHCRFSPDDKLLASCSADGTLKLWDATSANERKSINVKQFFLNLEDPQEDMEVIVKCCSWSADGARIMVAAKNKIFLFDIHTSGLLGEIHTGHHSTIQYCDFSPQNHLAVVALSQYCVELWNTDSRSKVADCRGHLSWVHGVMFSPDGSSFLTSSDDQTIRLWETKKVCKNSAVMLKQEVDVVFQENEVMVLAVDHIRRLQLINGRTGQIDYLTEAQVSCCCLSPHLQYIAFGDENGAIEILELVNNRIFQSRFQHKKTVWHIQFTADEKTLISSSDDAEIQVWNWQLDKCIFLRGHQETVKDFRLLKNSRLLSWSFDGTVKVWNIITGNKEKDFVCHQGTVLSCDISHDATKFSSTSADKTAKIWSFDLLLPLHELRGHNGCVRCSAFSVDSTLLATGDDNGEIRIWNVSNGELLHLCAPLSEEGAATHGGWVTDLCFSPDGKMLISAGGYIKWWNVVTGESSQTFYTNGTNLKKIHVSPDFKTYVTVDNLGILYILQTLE

[7] = molecular target: T3, Carboxy-terminal domain RNA polymerase II polypeptide A small phosphatase 1 (Homo sapiens, UniProt Q9GZU7); test: CTDSP1 inhibitors, concentration-response, biochemical, absorbance readout, ultra-high-throughput screen actives (AID 540297); assay type: functional
T3 sequence (Q9GZU7 whole entry): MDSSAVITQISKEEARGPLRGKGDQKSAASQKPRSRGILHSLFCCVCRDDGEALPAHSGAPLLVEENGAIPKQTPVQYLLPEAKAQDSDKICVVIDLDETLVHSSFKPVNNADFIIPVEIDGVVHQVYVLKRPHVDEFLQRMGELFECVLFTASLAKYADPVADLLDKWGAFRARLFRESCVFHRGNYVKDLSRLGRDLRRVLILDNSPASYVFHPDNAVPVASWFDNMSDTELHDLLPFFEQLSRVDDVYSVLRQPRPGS

Albumin = Albumin (Bos taurus, UniProt P02769); test: Counterscreen for inhibitors of T-cell receptor (TCR)-CD3 interaction: Fluorescence-based biochemical high throughput dose response assay to identify inhibitors of T-cell receptor (TCR)-CD3 interaction using a TAMRA-labeled BSA probe.; assay type: functional
Vero = test: viability of Vero cells under compound – cytotoxicity control for flavivirus capping enzyme inhibitors (AID 588742); assay type: functional; conditions: Chlorocebus sabaeus
Genome polyprotein = Genome polyprotein (dengue virus type 2, UniProt P29990); test: flavivirus cap methylation enzyme inhibition – biochemical, confirmation dose response, primary screen (AID 588689); assay type: functional
Genome polyprotein, sequence (P29990 2492-3391 limits assumed): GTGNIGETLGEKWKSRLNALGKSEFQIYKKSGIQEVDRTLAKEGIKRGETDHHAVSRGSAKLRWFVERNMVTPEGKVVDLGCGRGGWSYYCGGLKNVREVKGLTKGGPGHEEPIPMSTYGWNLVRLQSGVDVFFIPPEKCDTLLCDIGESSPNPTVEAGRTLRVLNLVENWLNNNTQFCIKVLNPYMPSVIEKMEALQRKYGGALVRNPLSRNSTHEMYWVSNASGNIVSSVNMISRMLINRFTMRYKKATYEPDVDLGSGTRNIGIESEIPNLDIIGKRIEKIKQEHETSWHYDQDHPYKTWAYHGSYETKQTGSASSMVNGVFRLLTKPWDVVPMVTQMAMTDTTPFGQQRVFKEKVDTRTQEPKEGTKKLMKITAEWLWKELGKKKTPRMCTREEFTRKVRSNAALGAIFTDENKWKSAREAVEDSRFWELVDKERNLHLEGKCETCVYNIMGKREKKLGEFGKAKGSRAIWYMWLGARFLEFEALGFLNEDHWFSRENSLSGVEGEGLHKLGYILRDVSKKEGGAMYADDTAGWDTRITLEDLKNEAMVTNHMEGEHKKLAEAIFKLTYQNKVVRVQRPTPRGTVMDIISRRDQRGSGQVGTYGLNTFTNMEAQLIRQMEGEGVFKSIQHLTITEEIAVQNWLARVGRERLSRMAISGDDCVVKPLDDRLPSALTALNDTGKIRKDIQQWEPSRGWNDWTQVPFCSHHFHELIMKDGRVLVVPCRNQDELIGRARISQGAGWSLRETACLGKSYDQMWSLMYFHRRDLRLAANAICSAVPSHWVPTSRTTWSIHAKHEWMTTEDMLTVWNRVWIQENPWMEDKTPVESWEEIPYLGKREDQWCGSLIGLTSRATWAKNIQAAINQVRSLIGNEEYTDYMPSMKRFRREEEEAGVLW

[8] = molecular target: T4, Tyrosyl-DNA phosphodiesterase 2 (Homo sapiens, UniProt O95551); test: potency against TDP2 phosphodiesterase activity – biochemical, epi absorbance, IC50, dose response (AID 743297)
T4 sequence (O95551 whole entry): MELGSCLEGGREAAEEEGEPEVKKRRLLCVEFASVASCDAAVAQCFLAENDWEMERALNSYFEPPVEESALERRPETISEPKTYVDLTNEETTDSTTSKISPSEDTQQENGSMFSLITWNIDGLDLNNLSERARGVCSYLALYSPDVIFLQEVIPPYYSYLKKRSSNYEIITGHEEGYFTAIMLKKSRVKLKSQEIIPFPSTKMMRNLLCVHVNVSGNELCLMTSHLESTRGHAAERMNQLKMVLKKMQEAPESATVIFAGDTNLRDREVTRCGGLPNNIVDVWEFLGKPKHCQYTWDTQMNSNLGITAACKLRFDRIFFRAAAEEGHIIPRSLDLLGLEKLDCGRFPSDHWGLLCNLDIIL

[9] = molecular target: Glucose-6-phosphate 1-dehydrogenase (Homo sapiens, UniProt P11413); test: inhibition of Homo sapiens G6PD, dose series – biochemical, fluorescence, selectivity assay for P. falciparum G6PD inhibitor project, dose response (AID 504792); assay type: functional
[10] = rescue of ΔF508 CFTR function, airway epithelium – human bronchial epithelial cells, plate reader, cherry-pick, two tests, dose response (AID 743267); assay type: functional, cell-based
Candida albicans [11] = test: resistant Candida growth with fluconazole co-treatment – CaCi-8 strain, Alamar Blue, dry powder, set 2, dose response (AID 488909); assay type: functional, organism-based
Candida albicans [12] = test: fluconazole-resistant Candida strain growth inhibitors – CaCi-8 strain, dry powder, set 4, dose response (AID 488950); assay type: functional, organism-based
Jurkat = test: SAR Analysis of small molecule inhibitors of […] specific antigen receptor-induced NF-kB activation in a Jurkat cell line using a luminescence assay - Set 3. [Related pubchem assays (depositor defined):AID435022, AID435025, AID465]; assay type: functional, cell-based; conditions: Homo sapiens
HEK293 [13] = test: HEK293T cell viability loss, resazurin readout – resazurin fluorescence, cytotoxicity control for NF-kB activator project, SAR follow-up (AID 493251); assay type: functional, cell-based; conditions: Homo sapiens
HEK293 [14] = test: SAR Analysis of small molecule inhibitors of B-cell specific antigen receptor-induced NF-kB activation in a HEK-293T cell line using a luminescence assay - Set 2. [Related pubchem assays (depositor defined):AID435022, AID435025, AID489021]; assay type: functional, cell-based; conditions: Homo sapiens
Phospholipase D2 [15] = molecular target: T5, Phospholipase D2 (Homo sapiens, UniProt O14939); test: cellular phospholipase D2 inhibition IC50 – cell-based, dose response (AID 602147); assay type: functional;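 note: cellular assay in HEK293 cells overexpressing GFP-tagged PLD2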
T5 sequence (O14939 whole entry): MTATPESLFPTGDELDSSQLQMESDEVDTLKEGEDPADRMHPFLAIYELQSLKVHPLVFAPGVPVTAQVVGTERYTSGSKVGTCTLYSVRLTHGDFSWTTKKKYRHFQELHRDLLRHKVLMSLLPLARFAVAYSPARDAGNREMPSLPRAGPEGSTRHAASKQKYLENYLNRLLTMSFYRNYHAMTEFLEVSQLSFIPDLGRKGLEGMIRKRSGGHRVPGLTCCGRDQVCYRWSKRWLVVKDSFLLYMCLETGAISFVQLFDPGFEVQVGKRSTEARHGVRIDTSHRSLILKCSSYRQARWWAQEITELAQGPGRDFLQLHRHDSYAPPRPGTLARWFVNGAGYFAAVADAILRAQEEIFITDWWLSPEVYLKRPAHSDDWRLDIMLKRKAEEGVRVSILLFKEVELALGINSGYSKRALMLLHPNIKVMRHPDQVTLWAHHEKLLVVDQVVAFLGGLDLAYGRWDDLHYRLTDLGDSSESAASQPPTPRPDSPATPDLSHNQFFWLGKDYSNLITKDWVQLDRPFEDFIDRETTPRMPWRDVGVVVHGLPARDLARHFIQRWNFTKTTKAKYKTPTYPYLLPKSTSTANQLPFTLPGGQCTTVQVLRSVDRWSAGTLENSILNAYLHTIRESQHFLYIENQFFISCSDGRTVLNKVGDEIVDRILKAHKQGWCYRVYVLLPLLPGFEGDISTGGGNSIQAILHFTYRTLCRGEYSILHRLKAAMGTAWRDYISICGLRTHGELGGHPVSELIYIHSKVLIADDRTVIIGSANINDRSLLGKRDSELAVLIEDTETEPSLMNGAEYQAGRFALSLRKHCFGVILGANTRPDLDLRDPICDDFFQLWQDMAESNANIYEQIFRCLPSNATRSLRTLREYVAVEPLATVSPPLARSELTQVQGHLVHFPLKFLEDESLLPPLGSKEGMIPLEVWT

Phospholipase D1 [16] = molecular target: T6, Phospholipase D1 (Homo sapiens, UniProt Q13393); test: cellular phospholipase D1 inhibition IC50 – cell-based, dose response (AID 602151); assay type: functional;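 note: cellular PLD1 assay in Calu-1 cells stimulated with PMA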
Hexokinase HKDC1 = molecular target: T7, Hexokinase HKDC1 (Homo sapiens, UniProt Q2TB90); test: analog inhibition of human HKDC1 activity – biochemical, set 2, SAR follow-up (AID 588355); assay type: functional
T7 sequence (Q2TB90 whole entry): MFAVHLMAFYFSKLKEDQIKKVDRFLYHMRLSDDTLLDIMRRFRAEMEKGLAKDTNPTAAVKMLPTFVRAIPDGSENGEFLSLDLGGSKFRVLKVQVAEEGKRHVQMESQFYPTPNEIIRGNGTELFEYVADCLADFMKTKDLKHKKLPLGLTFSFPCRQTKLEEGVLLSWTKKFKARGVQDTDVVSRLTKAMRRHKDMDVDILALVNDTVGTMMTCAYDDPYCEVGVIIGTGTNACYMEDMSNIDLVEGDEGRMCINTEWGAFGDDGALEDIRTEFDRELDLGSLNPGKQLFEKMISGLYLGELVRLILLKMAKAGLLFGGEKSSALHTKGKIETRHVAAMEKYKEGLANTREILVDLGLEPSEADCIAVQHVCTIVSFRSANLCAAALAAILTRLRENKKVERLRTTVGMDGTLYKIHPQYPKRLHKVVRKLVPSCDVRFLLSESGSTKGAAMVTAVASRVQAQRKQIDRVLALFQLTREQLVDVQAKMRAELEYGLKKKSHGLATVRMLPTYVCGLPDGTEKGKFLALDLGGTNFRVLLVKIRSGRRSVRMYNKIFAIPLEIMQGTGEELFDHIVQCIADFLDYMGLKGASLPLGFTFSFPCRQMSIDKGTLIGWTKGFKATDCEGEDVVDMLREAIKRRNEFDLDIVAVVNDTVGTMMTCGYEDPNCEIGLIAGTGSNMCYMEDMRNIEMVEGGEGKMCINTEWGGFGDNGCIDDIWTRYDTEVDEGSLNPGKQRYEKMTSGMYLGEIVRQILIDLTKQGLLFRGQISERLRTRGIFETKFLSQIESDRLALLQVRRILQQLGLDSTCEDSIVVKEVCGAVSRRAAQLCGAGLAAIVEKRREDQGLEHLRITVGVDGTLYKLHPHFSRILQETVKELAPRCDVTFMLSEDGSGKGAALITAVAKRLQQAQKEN

Hexokinase-1 = Hexokinase-1 (Homo sapiens, UniProt P19367); test: hexokinase 1 activity inhibitors, potency – biochemical, set 2, resazurin fluorescence coupled readout, selectivity assay for HKDC1 inhibitor project, SAR follow-up (AID 588356); assay type: functional
Phospholipase D1 [17] = molecular target: T6, Phospholipase D1; test: PLD1 purified enzyme concentration response. [Related pubchem assays (depositor defined):AID588854]; assay type: functional
Phospholipase D2 [18] = molecular target: T5, Phospholipase D2; test: PLD2 purified enzyme concentration response. [Related pubchem assays (depositor defined):AID588854]; assay type: functional
H4 = test: Inhibitors of Prion Protein 5' UTR mRNA Measured in Cell-Based System Using Plate Reader - 2078-01_Inhibitor_Dose_DryPowder_Activity. [Related pubchem assays (depositor defined):AID488894]; assay type: functional; conditions: Homo sapiens

Cc1ccnc(SCc2cn3c(C)cc(C)nc3n2)n1
AC50 (CAAX prenyl protease 2): > 100 µM (inactive) | AC50 (Trypsin): 20.2 µM (active)

C=C(C)C(=O)Nc1cccc(C2=NOC3(C2)C[C@@H](C(N)=O)N(C(=O)CCCCC)C3)c1 (some centres not stated)
IC50 [1]: 10.2 µM (active) | IC50 [2]: > 50 µM (inactive) | IC50 [3]: > 100 µM (inactive) | EC50 [4]: 0.11 µM (active) | IC50 [5]: 2.82 µM (active) | EC50 [6]: 2.96 µM (active) | IC50 [7]: 0.9 µM (active)

O=C1C(=NCCc2cc(Br)c(O)c(Br)c2)C=C(O)c2cccnc21
IC50 (Albumin): > 94.2 µM (inactive) | CC50 (Vero): 2.03 µM (active) | IC50 (Genome polyprotein): 12.2 µM (active) | IC50 [8]: 5.04 µM (active) | IC50 [9]: 25.2 µM (inactive) | AC50 [10]: 3.33 µM (active)

CCCC(=O)N1CCN(c2ccnc3cc(Cl)ccc23)CC1
AC50 (Candida albicans [11]): 5.59 µM (active) | AC50 (Candida albicans [12]): 16.9 µM (active)

CCOc1ccc(-c2nc(CSCC(=O)NC3CCCC3)c(C)o2)cc1
IC50 (Jurkat): 37.6 µM (inactive) | IC50 (HEK293 [13]): 64.2 µM (inactive) | IC50 (HEK293 [14]): 26.4 µM (inactive)

C[C@@H](CN1CCC2(CC1)C(=O)NCN2c1ccc(F)c(F)c1)NC(=O)c1cc2cc(F)ccc2[nH]1
IC50 (Phospholipase D2 [15]): 0.032 µM (active) | IC50 (Phospholipase D1 [16]): 0.005 µM (active)

CC(=O)NC1C(=O)N(CCN2CCOCC2)c2ccccc21 (configuration not stated)
IC50 (Hexokinase HKDC1): > 80 µM (inactive) | IC50 (Hexokinase-1): > 80 µM (inactive)

O=C(NCCN1CCC2(CC1)C(=O)NCN2c1ccc(Br)cc1)c1cc2cc(F)ccc2[nH]1
IC50 (Phospholipase D1 [17]): 5 µM (active) | IC50 (Phospholipase D2 [18]): 0.028 µM (active)

COc1ccc(NC=C2C(=O)c3ccccc3C2=O)c(OC)c1
AC50 (H4): 1.75 µM (active)
